Key:
Experiment in all cases: relative viability (nuclei count vs DMSO), 5 days (fraction); higher = more cells survive
[1] = compound: Cn1nnc2c(C(N)=O)ncn2c1=O [Temozolomide] + NC(=O)Nc1cc(-c2cccc(F)c2)sc1C(=O)N[C@H]1CCCNC1 [AZD7762] (partner 0.2 µM)
Procedure, shortened: (§1)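 Relative viability equals treated-well nuclei counts divided by vehicle-well nuclei counts. Counts came from 4× images of lung cancer cell lines grown in 1536-well plates for 5 days after pin-tool dosing on the day after seeding. Dosing used one drug alone or a fixed anchor-drug dose plus five library-drug doses (not always all listed) in √10 steps, and values are medians of duplicate plates.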

[2] = compound: C[C@@H](C(=O)N[C@@H](C1CCCCC1)C(=O)N2CCC[C@H]2C(=O)N[C@@H]3[C@@H](CC4=CC=CC=C34)OCC#CC#CCO[C@@H]5CC6=CC=CC=C6[C@@H]5NC(=O)[C@@H]7CCCN7C(=O)[C@H](C8CCCCC8)NC(=O)[C@H](C)NC)NC [AZD5582] + CS(=O)(=O)N1CCN(Cc2cc3nc(-c4cccc5[nH]ncc45)nc(N4CCOCC4)c3s2)CC1 [Pictilisib] (partner 1 µM)
Procedure, shortened: as §1

[3] = compound: Cn1nnc2c(C(N)=O)ncn2c1=O [Temozolomide] + COc1cccc2cc(-c3nc([C@H]4CC[C@H](C(=O)O)CC4)n4ncnc(N)c34)[nH]c12 [OSI-027] (partner 0.5 µM)
Procedure, shortened: as §1

[4] = compound: C[C@@H](C(=O)N[C@@H](C1CCCCC1)C(=O)N2CCC[C@H]2C(=O)N[C@@H]3[C@@H](CC4=CC=CC=C34)OCC#CC#CCO[C@@H]5CC6=CC=CC=C6[C@@H]5NC(=O)[C@@H]7CCCN7C(=O)[C@H](C8CCCCC8)NC(=O)[C@H](C)NC)NC [AZD5582] + CCNC(=O)c1noc(-c2cc(C(C)C)c(O)cc2O)c1-c1ccc(CN2CCOCC2)cc1 [Luminespib] (partner 0.01 µM)
Procedure, shortened: as §1

Cell Line	relative viability ([1]; first compound 0.2 µM)	relative viability ([1]; first compound 0.6325 µM)	relative viability ([1]; first compound 2 µM)	relative viability ([1]; first compound 6.325 µM)	relative viability ([1]; first compound 20 µM)	relative viability ([2]; first compound 0.001581 µM)	relative viability ([2]; first compound 0.005 µM)	relative viability ([2]; first compound 0.01581 µM)	relative viability ([2]; first compound 0.05 µM)	relative viability ([3]; first compound 0.2 µM)	relative viability ([3]; first compound 0.6325 µM)	relative viability ([3]; first compound 2 µM)	relative viability ([3]; first compound 6.325 µM)	relative viability ([3]; first compound 20 µM)	relative viability ([4]; first compound 0.001581 µM)	relative viability ([4]; first compound 0.005 µM)	relative viability ([4]; first compound 0.01581 µM)	relative viability ([4]; first compound 0.05 µM)
LOU-NH91	0.77	0.784	0.836	0.79	0.75	0.557	0.521	0.534	0.539	0.494	0.729	0.781	0.756	0.493	0.391	0.321	0.33	0.342
LU99A	0.377	0.355	0.353	0.421	0.43	0.315	0.323	0.291	0.37	0.27	0.317	0.321	0.283	0.306	0.215	0.227	0.271	0.266
LXF-289	1.12	1.08	1.08	1.06	1.07	0.705	0.795	0.757	0.794	0.772	0.863	0.927	0.76	0.63	0.76	0.561	0.627	0.749
NCI-H23	0.247	0.278	0.282	0.181	0.255	0.419	0.387	0.408	0.327	0.547	0.682	0.565	0.59	0.461	0.212	0.207		0.276
NCI-H322M	0.558	0.559	0.545	0.547	0.455	0.554	0.632	0.715	0.625		0.525	0.569	0.54	0.433	0.979	1.11		1.44
NCI-H358		0.466	0.533	0.408	0.369	0.426	0.308	0.394	0.308	0.437	0.795	0.697	0.689	0.583	0.225	0.279	0.357	0.417
NCI-H441	1.27	1.12	1.04	1.13	1.13	0.419	0.536	0.405	0.47	0.597	0.85	0.846	0.523	0.651	0.313	0.388		0.422
NCI-H460	0.694	0.643	0.694	0.611	0.619	0.277	0.329	0.366	0.337	0.853	0.688	0.761	0.682	0.656	0.0278	0.039	0.0382	0.0351
NCI-H596	1.29	1.09	1.17	1.02	1.29	0.31	0.348	0.413	0.191	0.835	0.76	0.692	0.691	0.835			0.931	0.551
NCI-H647	0.674	0.549	0.392	0.205	0.145	0.388	0.449		0.458	0.676	0.661	0.776	0.431	0.185	0.145	0.149	0.171	0.107
NCI-H650	0.973	1.16	0.938	0.953	0.879	0.645	0.702	0.759	0.589	0.562	0.535	0.584	0.506	0.534	0.704	0.68	0.745	0.636
NCI-H727		0.521	0.512	0.606	0.412	0.258	0.4	0.413	0.257	0.638	0.779	0.712	0.493	0.534	0.67	0.236	0.507	0.311
NCI-H838	0.914	0.977	0.961	0.89	0.881	0.39	0.467	0.362	0.59	0.426	0.485	0.397	0.419	0.411	0.33	0.318		0.204
NCI-H1355	0.736	0.743	0.716	0.729	0.751	0.372	0.379	0.289	0.361	0.349	0.421	0.455	0.382	0.352	0.599	0.674	0.606	0.923
NCI-H1395	0.385	0.381	0.454	0.332	0.362	0.601	0.698		0.632	0.629	0.604	0.686	0.513	0.659	0.579	0.685	0.805	0.91
NCI-H1437	1.09	1.12	1.14	1.12	1.14	0.439	0.452	0.48	0.409	0.863	0.877	0.952	0.922	0.906	1.11	0.986	1.12	1.14
NCI-H1651	0.392	0.403	0.478	0.465	0.419	0.616	0.656	0.539	0.723	0.724	0.727	0.657	0.636	0.636	0.859	0.904		0.96
NCI-H1666	0.795	0.923	0.858	0.7	0.657	0.481	0.48	0.413	0.407	0.81	0.822	0.789	0.65	0.672	0.888	0.931	1.01	0.946

Cell Line	relative viability ([1]; first compound 0.2 µM)	relative viability ([1]; first compound 0.6325 µM)	relative viability ([1]; first compound 2 µM)	relative viability ([1]; first compound 6.325 µM)	relative viability ([1]; first compound 20 µM)	relative viability ([2]; first compound 0.001581 µM)	relative viability ([2]; first compound 0.005 µM)	relative viability ([2]; first compound 0.01581 µM)	relative viability ([2]; first compound 0.05 µM)	relative viability ([3]; first compound 0.2 µM)	relative viability ([3]; first compound 0.6325 µM)	relative viability ([3]; first compound 2 µM)	relative viability ([3]; first compound 6.325 µM)	relative viability ([3]; first compound 20 µM)	relative viability ([4]; first compound 0.001581 µM)	relative viability ([4]; first compound 0.005 µM)	relative viability ([4]; first compound 0.01581 µM)	relative viability ([4]; first compound 0.05 µM)
NCI-H1734	0.642	0.623	0.646	0.488	0.559	0.455	0.514	0.451	0.631	0.685	0.562	0.667	0.578	0.649	0.172	0.192	0.17	0.188
NCI-H1755	0.487	0.396	0.485	0.385	0.638	0.349	0.424	0.306	0.398	0.76	0.758	0.743	0.673	0.637	0.259	0.49	0.329	0.437
NCI-H1792	0.9	0.775	0.711	0.532	0.676	0.278	0.345	0.28	0.35	0.552	0.739	0.689	0.681	0.736		0.594	0.496	0.579
NCI-H1793		0.414	0.605	0.401	0.411	0.288	0.311	0.299	0.397		0.279	0.27	0.245	0.232	0.23	0.282	0.239	0.18
NCI-H1915	0.757	0.652	0.584	0.281	0.27	0.88	0.999	0.824	0.936	0.693	0.614	0.602	0.388	0.326	0.756	0.782	0.693	0.829
NCI-H1944	0.432	0.505	0.391	0.441	0.696	0.344	0.389	0.297	0.389	0.428	0.378	0.474	0.377	0.382	0.64	0.714	0.757	0.802
NCI-H1975		0.778	0.85	0.679	0.78	0.3	0.348	0.315	0.409	0.888	0.683	0.852	0.731	0.804	0.255	0.282	0.174	0.353
NCI-H1993	0.678	0.764	1.03	0.692	0.71	0.916	0.807	0.796	0.859	0.522	0.556	0.536	0.535	0.621	0.848	1.02	0.888	0.946
NCI-H2085	0.878	1.03	0.938	0.928	0.972	0.572	0.44	0.488	0.584	0.537	0.886	1.05	0.734	0.577	0.435	0.478	0.439	0.493
NCI-H2087	1.38	1.31	1.46	1.35	1.33	0.871	1.02	0.905	0.986	0.628	0.565	0.634	0.464	0.612	0.171	0.135	0.176	0.148
NCI-H2126	1.05	1.02	1.02	0.959	1.11	0.505	0.556	0.436	0.533	0.686	0.781	0.85	1.12	0.717	0.817	0.831	0.84	0.811
NCI-H2170		0.951	0.733	0.466	0.295	0.3	0.352	0.28	0.319		0.825	0.875	0.575	0.34	0.798	0.606	0.626	0.786
NCI-H2347	0.572	0.743	0.757	0.792	0.706	0.712	0.446	0.637	0.894	0.338	0.428	0.501	0.376	0.432	0.616	0.239	0.262	0.692
NCI-H2405	0.821	0.79	0.828	0.759	0.75	0.459	0.856		0.612	0.569	0.618	0.646	0.619	0.654	0.892	0.924	0.733	1.08
NCI-H3122	1.02	1.05	1.01	0.922	0.934	0.626	0.569	0.548	0.189	0.404	0.995	1.33	0.949	1.03	0.0928	0.0812	0.0752	0.0956
PC-3 [JPC-3]	0.775	0.916	0.825	0.797	0.529	0.664	0.543	0.607	0.332	0.738	0.78	0.843	0.749	0.269	0.628	0.67	0.638	0.557
PC-14	0.361	0.402	0.322	0.275	0.15	0.501	0.549	0.598	0.295	1.12	0.811	0.855	0.741	0.159	0.171	0.168	0.105	0.143

— the supplement of paper PMC10307832
